Assay [1] addresses T1, CB1 receptor (Homo sapiens, UniProt P21554). Put plainly: DiscoveRx HitHunter cAMP XS+ assay in cAMP Hunter cell line, allosteric modulation of CP55,940 response. In kind it is cell-based. To be noted: for Emax: read-out: cAMP activity ECMax (%). As for the experimental part: Once it was established that the cells were healthy and growing normally, cells were passaged from flasks using cell dissociation reagent buffer and seeded into white walled clear bottom 384-well microplates for compound profiling. For profiling, cells were seeded at a density of 10000 cells per well in a total volume of 20 μL and were allowed to adhere and recover overnight prior to compound addition. Cells were treated the following day using the protocols shown below. cAMP modulation was determined using the DiscoveRx HitHunter cAMP XS+ assay.
Media was aspirated from cells and replaced with 10 μL 1:1 HBSS/Hepes: cAMP XS+ Ab reagent. Agonist (CP55,940) dose curves were performed to determine the EC20 value for the testing with the compounds of the present technology. 5 μL of 4× agonist was added to each well with an equal concentration of vehicle present. EC20 agonist concentration was determined directly from agonist dose curve.
(§1) For allosteric determination, cells were preincubated with compound followed by agonist challenge at the EC20 concentration of the agonist. 5 μL of 4× compound was added to cells and incubated at 37° C. for 30 minutes. 5 μL of 4× EC20 agonist was added to cells and incubated at 37° C. for 30 minutes.
Signal Detection: After appropriate compound incubation, assay signal was generated through incubation with 20 μL cAMP XS+ED/CL lysis cocktail for one hour followed by incubation with 20 μL cAMP XS+EA reagent for three hours at room temperature. Microplates were read following signal generation with a PerkinElmer Envision™ instrument for chemiluminescent signal detection.
(§2) Data Analysis: Dose curves were plotted using GraphPad Prism or Activity Base. The percentage activity is calculated using the following formula: % Activity=100%×(1−(mean RLU of test sample−mean RLU of MAX control)/(mean RLU of vehicle control [EC20 for PAM]−mean RLU of MAXcontrol).
(§3) Agonist (CP55,940) dose curves were performed for the CNR1 PathHunter and cAMP Hunter cell lines. […] The cAMP assay was performed in the presence of 20 μM forskolin (EC80).
(§4) In Vitro Evaluation: The in vitro evaluation of the covalent allosteric modulators was performed using as described previously.

Assay [2] has as its target T1, CB1 receptor. Put plainly: β-arrestin recruitment in CNR1 PathHunter cell line, allosteric modulation of CP55,940 response. To be noted: for Emax: read-out: β-arrestin activity EMax (%). Format: cell-based. As to the method:
as §1, §2, §3, §4

Where [3] appears, read: Table 1, preincubation with compound, then CP55,940 challenge, 20 μM forskolin.
[4] abbreviates: Table 1, preincubation with compound, then CP55,940 challenge, 20 μM forskolin, read-out: cAMP EC50.
Setting [5] is: Table 1, CP55,940 as agonist, read-out: β-arrestin EC50.
The mark [6] stands for this setting: Table 2, covalent allosteric modulators, read-out: cAMP activity EC50 (nm).
The mark [7] stands for this setting: Table 2, covalent allosteric modulators.
[8] abbreviates: Table 2, covalent allosteric modulators, read-out: β-arrestin activity EC50 (nm).

Each structure is given as a SMILES string. Where two headings read alike, the source gives them in different places.

T1 sequence (P21554 whole entry): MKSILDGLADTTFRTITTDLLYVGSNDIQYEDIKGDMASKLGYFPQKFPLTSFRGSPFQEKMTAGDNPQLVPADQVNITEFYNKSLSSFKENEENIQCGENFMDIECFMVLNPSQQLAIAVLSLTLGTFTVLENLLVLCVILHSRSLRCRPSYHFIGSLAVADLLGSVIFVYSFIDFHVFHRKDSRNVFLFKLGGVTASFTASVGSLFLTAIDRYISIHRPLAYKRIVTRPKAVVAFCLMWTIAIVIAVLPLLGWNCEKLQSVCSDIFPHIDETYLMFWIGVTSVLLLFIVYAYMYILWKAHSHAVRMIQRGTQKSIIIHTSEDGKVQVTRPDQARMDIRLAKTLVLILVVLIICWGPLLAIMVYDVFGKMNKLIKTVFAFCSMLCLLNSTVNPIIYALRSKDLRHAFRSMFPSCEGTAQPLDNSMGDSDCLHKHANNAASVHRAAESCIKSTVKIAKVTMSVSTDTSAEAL

With `O=C(Nc1ccc(Cl)cc1)Nc1cccc(-c2cccc(N3CCCC3)n2)c1` [Compound 10a, 1-(4-Chlorophenyl)-3-(3-(6-(pyrrolidin-1-yl)pyridin-2-yl)phenyl)urea], the cAMP % inhibition in assay [1] is 108%. Besides, in assay [2], the β-arrestin % inhibition is given as 109%.
Consider `CN(C(=O)Nc1cccc(-c2cccc(N3CCCC3)n2)c1)c1ccc(Cl)cc1` [Compound 13a, 1-(4-Chlorophenyl)-1-methyl-3-(3-(6-(pyrrolidin-1-yl)pyridin-2-yl)phenyl)urea], for which the cAMP % inhibition in assay [1] (setting [3]) was determined as 17%. For the same molecule, the EC50 in assay [1] (setting [4]) stood at 1640 nM; in assay [2] (setting [5]), 1020 nM. Moreover, in assay [2] (Table 1, CP55,940 as agonist), the β-arrestin % inhibition is on record as 99%.
Regarding `[N-]=[N+]=Nc1ccc(NC(=O)Nc2cccc(-c3cccc(N4CCCC4)n3)c2)cc1` [GAT331], the EC50 in assay [1] (setting [6]) came out at 297 nM; in assay [2] (setting [8]), 106 nM. Besides, the values for the Emax in assay [1] (setting [7]) and in assay [2] (setting [7]) were 128% and 138%, respectively.
As to `O=C(Nc1cccc(-c2cccc(N3CCCC3)n2)c1)Nc1ccc2ccccc2c1` [Compound 10x, 1-(Naphthalen-2-yl)-3-(3-(6-(pyrrolidin-1-yl)pyridin-2-yl)phenyl)urea], in assay [1] (setting [3]), the cAMP % inhibition was found to be 68%. Also, the EC50 is 1830 nM in assay [1] (setting [4]) and 1910 nM in assay [2] (setting [5]). Also, the β-arrestin % inhibition in assay [2] (Table 1, CP55,940 as agonist) is recorded as 119%.
Consider `O=C(Nc1cccc(-c2cccc(N3CCCC3)n2)c1)Nc1ccc(Cl)c(CCCCO)c1` [Compound 24b, 1-(4-Chloro-3-(4-hydroxybutyl)phenyl)-3-(3-(6-(pyrrolidin-1-yl)pyridin-2-yl)phenyl)urea], for which the cAMP % inhibition in assay [1] (setting [3]) came out at 111%. Also, the EC50 in assay [1] (setting [4]) came to 1420 nM; in assay [2] (setting [5]), 1350 nM. For the same molecule, the β-arrestin % inhibition in assay [2] (Table 1, CP55,940 as agonist) was found to be 125%.
Take `O=C(Nc1ccc(I)cc1)Nc1cccc(-c2cccc(N3CCCC3)n2)c1` [Compound 10b, 1-(4-Iodophenyl)-3-(3-(6-(pyrrolidin-1-yl)pyridin-2-yl)phenyl)urea]: the cAMP % inhibition in assay [1] (setting [3]) is 126%. In addition, the concentration for a half-maximal effect (EC50) was 223 nM in assay [1] (setting [4]) and 27 nM in assay [2] (setting [5]). The β-arrestin % inhibition in assay [2] (Table 1, CP55,940 as agonist) worked out at 133%.
On the same counts, the results for `O=C(Nc1ccc(Cl)cc1)Nc1ccccc1-c1cccc(N2CCCC2)n1` [Compound 55, 1-(4-Chlorophenyl)-3-(2-(6-(pyrrolidin-1-yl)pyridin-2-yl)phenyl)urea] are 110%, 3400 nM, 5860 nM and 61%.
In the case of `CN(C(=O)N(C)c1cccc(-c2cccc(N3CCCC3)n2)c1)c1ccc(Cl)cc1` [Compound 28, 1-(4-Chlorophenyl)-1,3-dimethyl-3-(3-(6-(pyrrolidin-1-yl)pyridin-2-yl)phenyl)urea], the cAMP % inhibition in assay [1] (setting [3]) is reported as 39%. Besides, the results for the EC50 in assay [1] (setting [4]) and in assay [2] (setting [5]) were 1670 nM and 2330 nM, respectively. The β-arrestin % inhibition in assay [2] (Table 1, CP55,940 as agonist) is 62%.
In the case of `CC(C)c1ccccc1NC(=O)Nc1cccc(-c2cccc(N3CCCC3)n2)c1` [Compound 10v, 1-(2-Isopropylphenyl)-3-(3-(6-(pyrrolidin-1-yl)pyridin-2-yl)phenyl)urea], in assay [1], the cAMP % inhibition came to 70%. Besides, the figures for the EC50 in assay [1] (cAMP EC50 nM) and in assay [2] (β-arrestin EC50 nM) were 4810 nM and 4200 nM, respectively. Further, the β-arrestin % inhibition in assay [2] was 66%.
Regarding `O=C(Nc1cccc(-c2cccc(N3CCCC3)n2)c1)Nc1ccc(Cl)cc1CCCCO` [Compound 24a, 1-(4-Chloro-2-(4-hydroxybutyl)phenyl)-3-(3-(6-(pyrrolidin-1-yl)pyridin-2-yl)phenyl)urea], the cAMP % inhibition in assay [1] (setting [3]) worked out at 82%. Moreover, the figures for the EC50 in assay [1] (setting [4]) and in assay [2] (setting [5]) were 1230 nM and 276 nM, respectively. The β-arrestin % inhibition in assay [2] (Table 1, CP55,940 as agonist) is recorded as 126%.
With `CN(C(=O)Nc1ccc(Cl)cc1)c1cccc(-c2cccc(N3CCCC3)n2)c1` [Compound 27, 3-(4-Chlorophenyl)-1-methyl-1-(3-(6-(pyrrolidin-1-yl)pyridin-2-yl)phenyl)urea], the cAMP % inhibition in assay [1] (setting [3]) worked out at 31%. In addition, the results for the EC50 in assay [1] (setting [4]) and in assay [2] (setting [5]) were 527 nM and 384 nM, respectively. Besides, the β-arrestin % inhibition in assay [2] (Table 1, CP55,940 as agonist) is listed as 109%.
As for `Clc1ccc(-c2nnc(Nc3cccc(-c4cccc(N5CCCC5)n4)c3)o2)cc1` [Compound 45, 5-(4-Chlorophenyl)-N-(3-(6-(pyrrolidin-1-yl)pyridin-2-yl)phenyl)-1,3,4-oxadiazol-2-amine], the cAMP % inhibition in assay [1] (setting [3]) is listed as 20%. In addition, the EC50 worked out at 4050 nM in assay [1] (setting [4]) and 3210 nM in assay [2] (setting [5]). In assay [2] (Table 1, CP55,940 as agonist), the β-arrestin % inhibition was 70%.
On to `O=C(Nc1ccc(F)cc1)Nc1cccc(-c2cccc(N3CCCC3)n2)c1` [Compound 10t, 1-(4-Fluorophenyl)-3-(3-(6-(pyrrolidin-1-yl)pyridin-2-yl)phenyl)urea], for which the cAMP % inhibition in assay [1] (setting [3]) was 119%. Besides, the EC50 in assay [1] (setting [4]) was determined as 148 nM; in assay [2] (setting [5]) it was 7 nM. In assay [2] (Table 1, CP55,940 as agonist), the β-arrestin % inhibition was found to be 108%.
Take `COc1ccccc1NC(=O)Nc1cccc(-c2cccc(N3CCCC3)n2)c1` [Compound 10j, 1-(2-Methoxyphenyl)-3-(3-(6-(pyrrolidin-1-yl)pyridin-2-yl)phenyl)urea]: in assay [1] (setting [3]), the cAMP % inhibition turned out to be 0%. Besides, the concentration for a half-maximal effect (EC50) in assay [1] (setting [4]) is greater than 10000 nM; in assay [2] (setting [5]), 1230 nM. Further, the β-arrestin % inhibition in assay [2] (Table 1, CP55,940 as agonist) stood at 93%.
For `O=C(NCCc1ccc(N2CCCCC2)cc1)c1[nH]c2ccc(Cl)cc2c1CCN=C=S` [GAT209], the EC50 is greater than 10000 nM in assay [1] (setting [6]) and 225 nM in assay [2] (setting [8]). The Emax in assay [1] amounted to 0%; in assay [2], 104%.
Take `O=C(Nc1cccc(-c2cccc(N3CCCC3)n2)c1)N1CCc2ccccc2C1` [Compound 10y, N-(3-(6-(Pyrrolidin-1-yl)pyridin-2-yl)phenyl)-3,4-dihydroisoquinoline-2(1H)-carboxamide]: in assay [1] (setting [3]), the cAMP % inhibition turned out to be 2.55%. The 50% effective concentration (EC50) in assay [1] (read-out: cAMP EC50) is greater than 10000 nM; in assay [2] (setting [5]), 5340 nM. In addition, the β-arrestin % inhibition in assay [2] (Table 1, CP55,940 as agonist) turned out to be 50%.
Consider `O=C(Nc1cccc(-c2cccc(N3CCCC3)n2)c1)Nc1ccc(Cl)cc1I` [Compound 19a, 1-(4-Chloro-2-iodophenyl)-3-(3-(6-(pyrrolidin-1-yl)pyridin-2-yl)phenyl)urea], for which the cAMP % inhibition in assay [1] (setting [3]) is recorded as 53%. In addition, the EC50 stood at 1270 nM in assay [1] (setting [4]) and 1200 nM in assay [2] (setting [5]). For the same molecule, in assay [2] (Table 1, CP55,940 as agonist), the β-arrestin % inhibition is listed as 118%.
In the case of `O=C(Nc1ccc(C(F)(F)F)cc1)Nc1cccc(-c2cccc(N3CCCC3)n2)c1` [Compound 10e, 1-(3-(6-(Pyrrolidin-1-yl)pyridin-2-yl)phenyl)-3-(4-(trifluoromethyl)phenyl)urea], the cAMP % inhibition in assay [1] (setting [3]) was determined as 161%. Further, the EC50 was found to be 218 nM in assay [1] (setting [4]) and 51 nM in assay [2] (setting [5]). In assay [2] (Table 1, CP55,940 as agonist), the β-arrestin % inhibition turned out to be 128%.
As to `O=C(Nc1cccc(-c2cccc(N3CCCC3)n2)c1)Nc1ccccc1F` [Compound 10u, 1-(2-Fluorophenyl)-3-(3-(6-(pyrrolidin-1-yl)pyridin-2-yl)phenyl)urea], the cAMP % inhibition in assay [1] (setting [3]) is 79%. The values for the EC50 in assay [1] (setting [4]) and in assay [2] (setting [5]) were 330 nM and 99 nM, respectively. The β-arrestin % inhibition in assay [2] (Table 1, CP55,940 as agonist) was determined as 107%.
For `O=C(Nc1cccc(-c2cccc(N3CCCC3)n2)c1)Nc1ccc(Cl)c(CCCCOC2CCCCO2)c1` (centres unmarked) [Compound 23b, 1-(4-Chloro-3-(4-((tetrahydro-2H-pyran-2-yl)oxy)butyl)phenyl)-3-(3-(6-(pyrrolidin-1-yl)pyridin-2-yl)phenyl)urea], in that order: 55%, 354 nM, 771 nM and 121%.
Take `O=C(Nc1cccc(-c2cccc(N3CCCC3)n2)c1)Nc1ccccc1C(=O)O` [Compound 16, 2-(3-(3-(6-(Pyrrolidin-1-yl)pyridin-2-yl)phenyl)ureido)benzoic acid]: in assay [1] (setting [3]), the cAMP % inhibition turned out to be 35%. For the same molecule, the EC50 in assay [1] (setting [4]) and in assay [2] (setting [5]) was greater than 10000 nM each time. The β-arrestin % inhibition in assay [2] (Table 1, CP55,940 as agonist) was 1.5%.
With `O=C(Nc1cccc(-c2cccc(N3CCCC3)n2)c1)Nc1ccccc1Oc1ccccc1` [Compound 10m, 1-(2-Phenoxyphenyl)-3-(3-(6-(pyrrolidin-1-yl)pyridin-2-yl)phenyl)urea], the cAMP % inhibition in assay [1] (setting [3]) is reported as 18%. For the same molecule, the figures for the EC50 in assay [1] (setting [4]) and in assay [2] (setting [5]) were greater than 10000 nM and 795 nM, respectively. In addition, the β-arrestin % inhibition in assay [2] (Table 1, CP55,940 as agonist) was determined as 80%.
